Test [1] concerns Human venous whole blood (IFN-γ). In words: Human whole blood IFN-γ assay. In kind it is cell-based. The protocol: Assay 10: Human Whole Blood IFN-γ Assay
Human venous whole blood (22.5 μL per well), obtained from healthy donors, was pre-treated with compounds for one hour at 37° C. in a humidified 95% air/5% CO2 incubator. The blood was stimulated with 2.5 μL anti-human CD3 and anti-CD28 mAb at a final concentration of 1 μg/mL each for 24 hours at 37° C. IFN-γ in the supernatants was measured using AlphLISA kit (Cat #AL217).

The target of a further test is human DGKζ (Homo sapiens (Human), UniProt Q13574). As to the kind of experiment: biochemical. The settings on record: liposome (LIPGLO) assay. In kind it is biochemical.
Sequence of human DGKζ (Q13574 whole entry, looked up): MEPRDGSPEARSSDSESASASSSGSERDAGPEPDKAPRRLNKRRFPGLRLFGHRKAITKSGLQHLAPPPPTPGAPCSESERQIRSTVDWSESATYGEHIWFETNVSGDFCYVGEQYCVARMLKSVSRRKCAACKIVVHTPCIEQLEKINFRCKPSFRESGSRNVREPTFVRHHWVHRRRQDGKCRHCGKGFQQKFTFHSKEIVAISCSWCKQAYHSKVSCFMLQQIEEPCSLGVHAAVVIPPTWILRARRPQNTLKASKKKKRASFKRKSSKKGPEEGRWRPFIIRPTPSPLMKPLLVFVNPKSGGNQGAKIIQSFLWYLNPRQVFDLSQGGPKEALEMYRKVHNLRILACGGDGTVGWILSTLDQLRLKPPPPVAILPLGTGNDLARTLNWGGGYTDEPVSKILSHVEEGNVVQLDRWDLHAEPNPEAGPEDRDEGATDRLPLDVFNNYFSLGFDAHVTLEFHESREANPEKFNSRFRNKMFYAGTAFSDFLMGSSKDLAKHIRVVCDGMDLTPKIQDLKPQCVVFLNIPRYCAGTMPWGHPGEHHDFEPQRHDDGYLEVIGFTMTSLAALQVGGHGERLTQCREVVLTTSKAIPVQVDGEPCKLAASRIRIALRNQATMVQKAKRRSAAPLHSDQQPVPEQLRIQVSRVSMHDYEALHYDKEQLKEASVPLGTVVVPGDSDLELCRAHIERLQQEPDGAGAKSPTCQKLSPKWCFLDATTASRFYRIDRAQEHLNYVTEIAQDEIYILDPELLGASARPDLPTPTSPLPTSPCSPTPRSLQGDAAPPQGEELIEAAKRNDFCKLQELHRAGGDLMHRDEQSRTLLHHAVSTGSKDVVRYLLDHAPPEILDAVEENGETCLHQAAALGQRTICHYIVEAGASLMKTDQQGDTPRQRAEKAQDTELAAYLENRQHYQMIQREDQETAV
Test [2] concerns human venous whole blood, CD8 positive population (pERK). As to the kind of experiment: DGK human whole blood pERK assay. In kind it is cell-based. Particulars: for pEC50: human whole blood pERK, read-out: DGK HWB; for pIC50: read-out: DGK HWB pERK IC50. In a few lines: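 Read-out is the pERK-positive fraction of CD8+ cells measured by flow cytometry. Donor venous blood (heparin) saw compound for one hour at 37° C before a 15-minute anti-CD3 challenge (1 μg/mL final) with cross-linking anti-mouse IgG.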

The target of the next test is DGKα (Homo sapiens (Human), UniProt P23743). In words: biochemical. In kind it is biochemical. Particulars: read-out: DGKα LIPGLO IC50.
Sequence of DGKα (P23743 whole entry, looked up): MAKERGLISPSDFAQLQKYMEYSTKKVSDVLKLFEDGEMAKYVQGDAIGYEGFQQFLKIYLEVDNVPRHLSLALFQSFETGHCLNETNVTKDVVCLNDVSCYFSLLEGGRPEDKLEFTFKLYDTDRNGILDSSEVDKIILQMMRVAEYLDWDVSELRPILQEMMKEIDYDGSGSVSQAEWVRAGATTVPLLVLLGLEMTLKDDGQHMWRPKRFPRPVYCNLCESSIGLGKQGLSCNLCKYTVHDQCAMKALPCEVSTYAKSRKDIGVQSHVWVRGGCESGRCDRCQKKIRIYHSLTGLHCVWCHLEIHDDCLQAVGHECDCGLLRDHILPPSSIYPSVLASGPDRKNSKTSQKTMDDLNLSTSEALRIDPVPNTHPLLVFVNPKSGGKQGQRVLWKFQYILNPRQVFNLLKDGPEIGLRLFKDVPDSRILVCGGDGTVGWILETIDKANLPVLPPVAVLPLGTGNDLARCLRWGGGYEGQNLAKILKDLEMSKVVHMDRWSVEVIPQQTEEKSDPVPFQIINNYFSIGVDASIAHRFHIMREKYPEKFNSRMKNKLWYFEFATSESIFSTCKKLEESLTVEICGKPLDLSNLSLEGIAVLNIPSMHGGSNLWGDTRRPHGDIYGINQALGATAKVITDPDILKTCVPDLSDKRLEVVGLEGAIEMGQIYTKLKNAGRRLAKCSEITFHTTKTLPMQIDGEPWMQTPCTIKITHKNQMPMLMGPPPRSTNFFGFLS
Where [3] appears, read: human whole blood IFN-γ, read-out: INFg Whole Blood.
[4] abbreviates: human whole blood, anti-CD3 plus anti-CD28, 24 hours, read-out: INFg Whole Blood Normalized Agonist EC50.
[5] abbreviates: Homo sapiens, human whole blood IFN-γ, read-out: INFg Whole Blood.
Where [6] appears, read: Homo sapiens, 24 h, human whole blood, anti-CD3 plus anti-CD28, 24 hours, read-out: INFg Whole Blood Normalized Agonist EC50.
[7] abbreviates: human whole blood, CD8 positive population.

pEC50, pIC50: −log10 of the molar value. Read-outs that look alike come from different tables or passages of the source.

In the case of `CC[C@@H]1CN(c2cc(=O)n(C)c3ccc(C#N)nc23)CC[C@H]1Oc1ccc(OC(C)C)cn1` (single isomer, unassigned) [Example 194], the pEC50 is 5.74 in test [1] (setting [3]) and 5.52 in test [2]. Besides, the pIC50 on human DGKζ (Table A, read-out: DGKζ) is 5.74.
Consider `CC[C@@H]1CN(c2cc(=O)n(C)c3ccc(C#N)nc23)CC[C@H]1Oc1cccc(C(C)C)c1` (racemic) [Example 137, 8-((3R,4R)-3-ethyl-4-(3-isopropylphenoxy)piperidin-1-yl)-5-methyl-6-oxo-5,6-dihydro-1,5-naphthyridine-2-carbonitrile], for which the pIC50 at human DGKζ (read-out: DGKζ LIPGLO IC50) was 6.04; at DGKα (liposome (LIPGLO) assay), 7.44.
With `CC[C@@H]1CN(c2cc(=O)n(C)c3ccc(C#N)nc23)CC[C@H]1Oc1cccc(OC(F)(F)F)c1` (single isomer, unassigned) [Example 162], the results for the pIC50 on human DGKζ (read-out: DGKζ LIPGLO IC50) and at DGKα (liposome (LIPGLO) assay) were 5.96 and 5.77, respectively.
Turning to `CC[C@@H]1CN(c2cc(=O)n(C)c3ccc(C#N)nc23)CC[C@H]1Oc1cccc(OC(F)(F)F)c1` (single isomer, unassigned) [Example 163], the pIC50 at human DGKζ (read-out: DGKζ LIPGLO IC50) was 6.44; at DGKα (liposome (LIPGLO) assay), 7.38.
The matching figures for `C[C@@H]1CN(c2cc(=O)n(C)c3ccc(C#N)nc23)CC[C@H]1Oc1c(F)cc(F)cc1F` [Example 131, 5-methyl-8-((3R,4R)-3-methyl-4-(2,4,6-trifluorophenoxy)piperidin-1-yl)-6-oxo-5,6-dihydro-1,5-naphthyridine-2-carbonitrile]: at most 3.60 and 5.51.
Consider `COc1cc(F)ccc1OC1CCN(c2c(C#N)c(=O)n(C)c3ccc(Cl)nc23)CC1` [Example 36, 6-chloro-4-(4-(4-fluoro-2-methoxyphenoxy)piperidin-1-yl)-1-methyl-2-oxo-1,2-dihydro-1,5-naphthyridine-3-carbonitrile], for which the pIC50 was 4.49 on human DGKζ (read-out: DGKζ LIPGLO IC50) and 5.80 on DGKα (liposome (LIPGLO) assay).
As for `CCO[C@@H]1CN(c2cc(=O)n(C)c3ccc(C#N)nc23)CC[C@H]1Oc1cccc(C(F)(F)F)c1` [Example 263, 8-((3R,4R)-3-ethoxy-4-(3-(trifluoromethyl)phenoxy)piperidin-1-yl)-5-methyl-6-oxo-5,6-dihydro-1,5-naphthyridine-2-carbonitrile], the pEC50 is 6.74 in test [1] (setting [3]) and 6.70 in test [2] (Homo sapiens, CD8 positive).
For `CC(C)c1cccc(O[C@H]2CCN(c3cc(=O)n(C)c4ccc(C#N)nc34)C[C@H]2C)n1` (single isomer, unassigned) [Example 216], the pEC50 is 5.85 in test [1] (setting [3]) and 4.85 in test [2] (Homo sapiens, CD8 positive).
On to `CC[C@@H]1CN(c2cc(=O)n(C)c3ccc(C#N)nc23)CC[C@H]1Oc1ccc(OC(C)C)cn1` (single isomer, unassigned) [Example 193], for which the pEC50 in test [1] (setting [3]) is 6.43; in test [2], 6.40. Further, the pIC50 at human DGKζ (Table A, read-out: DGKζ) was 5.66.
Regarding `Cn1c(=O)cc(N2CCC(Oc3ccc(C4CCCCC4)cc3)CC2)c2nc(C#N)ccc21` [Example 63, 8-(4-(4-cyclohexylphenoxy)piperidin-1-yl)-5-methyl-6-oxo-5,6-dihydro-1,5-naphthyridine-2-carbonitrile], the pIC50 at human DGKζ (read-out: DGKζ LIPGLO IC50) is 4.42; at DGKα (liposome (LIPGLO) assay), 6.13.
The matching figures for `C[C@@H]1CN(c2cc(=O)n(C)c3ccc(C#N)nc23)CC[C@@H]1Oc1cccc(C2CC2)c1` [Example 180, 8-((3R,4S)-4-(3-cyclopropylphenoxy)-3-methylpiperidin-1-yl)-5-methyl-6-oxo-5,6-dihydro-1,5-naphthyridine-2-carbonitrile]: 6.00 and 7.35.
On to `C[C@@H]1CN(c2cc(=O)n(C)c3ccc(C#N)nc23)CC[C@H]1Oc1ccc(OC(C)(C)C)cc1` [Example 87, 8-((3R,4R)-4-(4-(tert-butoxy)phenoxy)-3-methylpiperidin-1-yl)-5-methyl-6-oxo-5,6-dihydro-1,5-naphthyridine-2-carbonitrile], for which the pEC50 in test [1] (setting [4]) was 5.70. Besides, on DGKα (liposome (LIPGLO) assay), the pIC50 was 7.30.
Consider `C[C@@H]1CN(c2cc(=O)n(C)c3ccc(C#N)nc23)CC[C@@H]1Oc1ccc(C(F)F)cn1` (single isomer, unassigned) [Example 209], for which the pEC50 in test [1] (setting [5]) is 5.74; in test [2] (Homo sapiens, CD8 positive), 4.74.
For `C[C@@H]1CN(c2cc(=O)n(C)c3ccc(C#N)nc23)CC[C@H]1Oc1ccc(OC(C)(C)C)cc1` [Example 86, 8-((3R,4R)-4-(4-(tert-butoxy)phenoxy)-3-methylpiperidin-1-yl)-5-methyl-6-oxo-5,6-dihydro-1,5-naphthyridine-2-carbonitrile], the pEC50 in test [1] (setting [4]) is 6.16. For the same molecule, the pIC50 at DGKα is 6.14.
In the case of `C[C@@H]1CN(c2cc(=O)n(C)c3ccc(C#N)nc23)CC[C@@H]1Oc1ccc(OC(C)(C)C)cc1` (single isomer, unassigned) [Example 173], in test [1] (setting [4]), the pEC50 was 5.96. In addition, on DGKα (liposome (LIPGLO) assay), the pIC50 was 6.13.
For `C[C@@H]1CN(c2cc(=O)n(C)c3ccc(C#N)nc23)CC[C@@H]1Oc1ccc(OC(C)(C)C)cc1` (single isomer, unassigned) [Example 174], the pEC50 in test [1] (setting [4]) is 5.44. Besides, the pIC50 at DGKα is 5.80.
On to `CC[C@@H]1CN(c2cc(=O)n(C)c3ccc(C#N)nc23)CC[C@H]1Oc1cccc(C(F)(F)F)c1` [Example 140, 8-((3R,4R)-3-ethyl-4-(3-(trifluoromethyl)phenoxy)piperidin-1-yl)-5-methyl-6-oxo-5,6-dihydro-1,5-naphthyridine-2-carbonitrile], for which the pEC50 in test [1] (setting [6]) is 5.92. On DGKα (liposome (LIPGLO) assay), the pIC50 was 6.89.
`C[C@@H]1CN(c2cc(=O)n(C)c3ccc(C#N)nc23)CC[C@H]1Oc1ccc(C(F)(F)F)cc1` (racemic) [Example 97, 5-methyl-8-((3R,4R)-3-methyl-4-(4-(trifluoromethyl)phenoxy)piperidin-1-yl)-6-oxo-5,6-dihydro-1,5-naphthyridine-2-carbonitrile]: the pEC50 in test [1] (setting [6]) is 5.72. Further, the pIC50 in test [2] (setting [7]) was 5.52.
Turning to `C[C@@H]1CN(c2cc(=O)n(C)c3ccc(C#N)nc23)CC[C@@H]1Oc1ccc(OC(C)(C)C)cc1` [Example 172, 8-((3R,4S)-4-(4-(tert-butoxy)phenoxy)-3-methylpiperidin-1-yl)-5-methyl-6-oxo-5,6-dihydro-1,5-naphthyridine-2-carbonitrile], in test [1] (setting [6]), the pEC50 was 5.82. In addition, the pIC50 at DGKα is 6.21.
On to `Cn1c(=O)cc(N2CCC(Oc3ccc(C(C)(C)C)cc3)CC2)c2cc(C#N)ccc21` [Example 53, 4-(4-(4-(tert-butyl)phenoxy)piperidin-1-yl)-1-methyl-2-oxo-1,2-dihydroquinoline-6-carbonitrile], for which the pEC50 in test [1] (setting [6]) is 5.74. For the same molecule, the pIC50 in test [2] (setting [7]) is 5.55.
In the case of `CC(C)Oc1ccc(O[C@H]2CCN(c3cc(=O)n(C)c4ccc(C#N)nc34)C[C@H]2C)nc1` (racemic) [Example 228, (+/−) 8-(cis-4-((5-isopropoxypyridin-2-yl)oxy)-3-methylpiperidin-1-yl)-5-methyl-6-oxo-5,6-dihydro-1,5-naphthyridine-2-carbonitrile], the pEC50 in test [1] (setting [5]) is 5.96; in test [2] (Homo sapiens, CD8 positive), 5.82.
On to `CC[C@@H]1CN(c2cc(=O)n(C)c3ccc(C#N)nc23)CC[C@H]1Oc1ccc(C(F)(F)F)cc1` (single isomer, unassigned) [Example 147], for which the pEC50 in test [1] (setting [4]) is 5.92. In addition, the pIC50 in test [2] (setting [7]) is 6.21.
`C[C@@H]1CN(c2cc(=O)n(C)c3ccc(C#N)nc23)CC[C@H]1Oc1ccc(F)c(F)c1` (racemic) [Example 103, 8-((3R,4R)-4-(3,4-difluorophenoxy)-3-methylpiperidin-1-yl)-5-methyl-6-oxo-5,6-dihydro-1,5-naphthyridine-2-carbonitrile]: the pEC50 in test [1] (setting [6]) is 5.82. In addition, the pIC50 in test [2] (setting [7]) is 5.26.
Regarding `CC(C)c1ccc(O[C@H]2CCN(c3cc(=O)n(C)c4ccc(C#N)nc34)C[C@H]2C)nc1` (single isomer, unassigned) [Example 207], the pEC50 was 5.89 in test [1] (setting [3]) and 4.92 in test [2].
In the case of `CC[C@@H]1CN(c2cc(=O)n(C)c3ccc(C#N)nc23)CC[C@@H]1Oc1cccc(C(C)C)c1` [Example 164, 8-((3R,4S)-3-ethyl-4-(3-isopropylphenoxy)piperidin-1-yl)-5-methyl-6-oxo-5,6-dihydro-1,5-naphthyridine-2-carbonitrile], the pEC50 in test [1] (Homo sapiens, 24 h, read-out: INFg Whole Blood Normalized Agonist EC50, human whole blood, anti-CD3 plus anti-CD28, 24 hours) is 6.10. The pIC50 in test [2] (Homo sapiens, CD8 positive) was 5.29.
`C[C@@H]1CN(c2cc(=O)n(C)c3ccc(C#N)nc23)CC[C@@H]1Oc1ccc(C(F)F)cn1` (single isomer, unassigned) [Example 210]: the results for the pEC50 in test [1] (setting [3]) and in test [2] were 5.92 and 4.89, respectively.
In the case of `CC(C)c1ccc(O[C@H]2CCN(c3cc(=O)n(C)c4ccc(C#N)nc34)C[C@H]2C)nc1` (single isomer, unassigned) [Example 206], the pEC50 was 6.39 in test [1] (setting [3]) and 5.44 in test [2].

These data come from patent publication US11964973B2 (priority 2019, dated 2024).
